Test results: US20230405035A1, “MONTBRETIN A FUNCTIONAL FOOD” (THE UNIVERSITY OF BRITISH COLUMBIA, priority 2020, published 2023)

What was measured:
[1] = target: T1, human pancreatic α-amylase (HPA) (Homo sapiens, UniProt P04746); assay: HPA inhibition IC50 assay with colorimetric substrate CNPG3; type: biochemical; details: following standard bread production processes
T1 sequence (P04746 16-511): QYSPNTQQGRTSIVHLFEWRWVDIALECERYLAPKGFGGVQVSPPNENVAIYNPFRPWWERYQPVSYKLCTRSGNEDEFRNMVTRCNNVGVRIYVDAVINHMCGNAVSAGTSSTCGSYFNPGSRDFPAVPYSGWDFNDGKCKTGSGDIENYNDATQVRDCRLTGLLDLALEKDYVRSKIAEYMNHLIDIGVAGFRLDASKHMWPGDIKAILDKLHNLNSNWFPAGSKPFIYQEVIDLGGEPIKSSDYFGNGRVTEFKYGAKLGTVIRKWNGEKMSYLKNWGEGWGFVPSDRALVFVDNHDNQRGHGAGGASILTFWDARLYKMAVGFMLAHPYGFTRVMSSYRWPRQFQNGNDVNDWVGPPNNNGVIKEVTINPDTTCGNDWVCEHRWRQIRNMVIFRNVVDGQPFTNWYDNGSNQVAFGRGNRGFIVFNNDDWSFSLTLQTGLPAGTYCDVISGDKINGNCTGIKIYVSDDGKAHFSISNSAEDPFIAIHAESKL
Protocol: MbA inhibits the activity of human pancreatic α-amylase (HPA). To determine whether and to what extent the prepared bread extract inhibits HPA, enzymatic assays were performed with the colorimetric substrate 2-chloro-4-nitrophenyl-[…] (CNPG3).
HPA inhibition activity of the bread prepared as described above was determined by monitoring CNPG3 concentration. 20 μL of 200, 100, 40, 20 or 8 mM CNPG3 were combined with 170 μL buffer (50 mM phosphate pH 7.0, 100 mM NaCl) in quartz cuvettes and placed in a CARYXXX UV/Vis spectrophotometer. • 2. To each of the five cuvettes, 10 μL of HPA solution was rapidly added to the 190 μL buffered substrate solution. • 3. Spectrophotometer was set to continuously measure absorbance at 400 nm over 5 min. • 4. […] Rates were calculated from t=1 to t=3 (Δ400 nm/min), plotted against CNPG3 concentration and fit with the Michaelis-Menten equation.
20 μL of 40 mM CNPG was combined with 150 μL buffer and 20 μL MbA− or MbA+ bread extract (either ×100 or ×1000 diluted with water). […] Spectrophotometer was set to continuously measure absorbance at 400 nm over 5 min. • 4. Rates were calculated from t=1 to t=3 (Δ400 nm/min), plotted on a bar graph.
Three sets of bread extractions were done to measure IC50: • A. Bread baked with MbA (MbA+) • B. Bread baked without MbA (MbA−) • C. […] IC50s were measured using the HPA/CNPG3 assay described above: • 1. […]

[2] = HPLC analysis of MbA bread extracts (integrity of MbA after baking); type: physicochemical; details: MbA baked in bread to an internal temperature of 100° C., methanol extract; control = MbA added after baking (MbA*)
Protocol: MbA was added as a primary ingredient to a standard bread recipe and to evaluate the integrity of the additive after baking. To this end MbA was added (45 mg) as part of the raw dough (225 g) and separated into 25 g half-servings after kneading. After baking to an internal temperature of 100° C., the samples were extracted with methanol and subject to HPLC and kinetic analysis. In parallel, control samples containing no MbA (MbA−) or MbA added after baking (MbA*) were assessed in an analogous manner.
Two approximately 225 g batches of bread were prepared, one containing MbA the other with no MbA. For each batch: • 1. 5 mL of yeast was activated by mixing with 62.5 mL 43.3° C. water and ¼ tsp sucrose then incubated on the bench top for 10 min. • 2. ½ cup of all-purpose flour was mixed with ½ cup whole-wheat flour and ⅛ tsp NaCl (and 45 mg* MbA for the MbA+ batch only). *The target MbA concentration was 10 mg per serving of bread:
[formula] • 3. The flour mixture was combined with the activated yeast mixture and 25 mL room temperature water then stirred until a dough formed. • 4. Dough kneaded for 10 min by hand. • 5. Dough was rested at room temperature for 30 min. • 6. […]
100 μL of each bread extract was injected on HPLC as described above. MbA was quantified by integrating the MbA on the HPLC trace to standard curve of known MbA amounts.

CC1O[C@@H](O[C@@H]2CO[C@@H](Oc3c(O)cc(-c4oc5cc(O)cc(O)c5c(=O)c4O[C@@H]4OC(C)[C@H](O)[C@H](O)C4O[C@@H]4OC(COC(=O)/C=C/c5ccc(O)c(O)c5)[C@@H](O)[C@@H](O)C4O[C@@H]4OC(CO)[C@@H](O)[C@@H](O)C4O)cc3O)C(O)[C@@H]2O)C(O)[C@@H](O)[C@H]1O (some centres unmarked) [MbA, Montbretin A]
activity retained relative to the unbaked controls (MbA*) [1]: greater than 80% | MbA intact relative to control (HPLC traces) [2]: 84%
